Experimental data reported in ChEMBL document CHEMBL1201862, “PubChem BioAssay data set” (2004).
The source made the active and inactive calls.

What was measured:
[1] = Vero cell cytotoxicity, dose response, cytotoxicity control for Vif-APOBEC3G degradation inhibitor project, Vero cells (AID 1117358); assay type: functional; settings: Human immunodeficiency virus 1, Vero
[2] = target: T1, Mannose-6-phosphate isomerase (Homo sapiens, UniProt P34949); assay: human PMI inhibitors, high substrate, primary screen, biochemical, fluorescence intensity, high mannose 6-phosphate (AID 1220)
T1 sequence (P34949 whole entry): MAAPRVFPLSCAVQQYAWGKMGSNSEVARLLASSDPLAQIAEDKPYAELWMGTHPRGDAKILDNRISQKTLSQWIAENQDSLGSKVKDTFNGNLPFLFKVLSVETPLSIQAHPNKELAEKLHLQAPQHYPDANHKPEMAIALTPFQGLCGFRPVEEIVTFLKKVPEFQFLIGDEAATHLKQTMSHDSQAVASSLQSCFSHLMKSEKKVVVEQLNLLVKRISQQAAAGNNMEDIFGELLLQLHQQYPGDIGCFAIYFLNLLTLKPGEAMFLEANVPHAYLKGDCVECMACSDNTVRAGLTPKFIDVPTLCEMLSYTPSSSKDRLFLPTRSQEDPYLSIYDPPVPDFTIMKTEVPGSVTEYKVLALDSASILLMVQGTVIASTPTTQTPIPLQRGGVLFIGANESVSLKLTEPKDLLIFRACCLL

Beta-galactosidase = Beta-galactosidase (Escherichia coli, UniProt Q8VNN2); assay: Dose response counterscreen for EBI2 assay utilizing the enzyme, b-galactosidase.; assay type: functional
Beta-galactosidase, sequence (Q8VNN2 whole entry): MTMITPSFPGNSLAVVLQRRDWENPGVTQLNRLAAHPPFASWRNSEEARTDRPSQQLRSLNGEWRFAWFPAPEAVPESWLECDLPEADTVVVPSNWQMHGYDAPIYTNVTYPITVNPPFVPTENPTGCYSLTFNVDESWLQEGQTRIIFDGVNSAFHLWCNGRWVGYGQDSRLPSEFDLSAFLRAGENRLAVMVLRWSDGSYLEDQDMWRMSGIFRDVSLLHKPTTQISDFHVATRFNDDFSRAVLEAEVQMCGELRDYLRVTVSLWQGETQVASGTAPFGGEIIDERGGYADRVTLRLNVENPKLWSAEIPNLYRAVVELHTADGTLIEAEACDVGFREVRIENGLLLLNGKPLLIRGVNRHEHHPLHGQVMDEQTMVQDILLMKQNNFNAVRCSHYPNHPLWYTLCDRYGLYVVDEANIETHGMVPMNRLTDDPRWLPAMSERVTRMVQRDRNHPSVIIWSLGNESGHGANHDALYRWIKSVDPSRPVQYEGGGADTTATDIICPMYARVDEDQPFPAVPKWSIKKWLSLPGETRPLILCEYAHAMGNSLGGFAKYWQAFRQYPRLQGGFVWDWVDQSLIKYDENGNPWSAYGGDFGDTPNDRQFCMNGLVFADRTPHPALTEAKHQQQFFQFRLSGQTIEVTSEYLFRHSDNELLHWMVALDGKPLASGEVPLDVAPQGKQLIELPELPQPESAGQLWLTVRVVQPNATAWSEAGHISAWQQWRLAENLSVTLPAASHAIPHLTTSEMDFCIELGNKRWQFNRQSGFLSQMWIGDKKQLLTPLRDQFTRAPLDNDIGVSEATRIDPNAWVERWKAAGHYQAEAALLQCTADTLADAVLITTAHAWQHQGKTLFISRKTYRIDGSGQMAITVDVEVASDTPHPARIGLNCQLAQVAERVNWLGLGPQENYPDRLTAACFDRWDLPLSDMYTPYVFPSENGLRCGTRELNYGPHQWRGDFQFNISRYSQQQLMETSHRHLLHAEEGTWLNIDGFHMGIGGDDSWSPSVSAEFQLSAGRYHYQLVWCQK

[3] = Luminescence Cell-Based Dose Confirmation HTS to Identify Inhibitors of Platelet Dense Granule Release. [Related pubchem assays: 1663 (Primary HTS), 1678 (Summary of Project)]; assay type: functional
[4] = target: Luciferin 4-monooxygenase (Photinus pyralis, UniProt P08659); assay: firefly luciferase enzyme inhibitors, dose response, biochemical, luminescence (AID 1891)
Luciferin 4-monooxygenase, sequence (P08659 whole entry): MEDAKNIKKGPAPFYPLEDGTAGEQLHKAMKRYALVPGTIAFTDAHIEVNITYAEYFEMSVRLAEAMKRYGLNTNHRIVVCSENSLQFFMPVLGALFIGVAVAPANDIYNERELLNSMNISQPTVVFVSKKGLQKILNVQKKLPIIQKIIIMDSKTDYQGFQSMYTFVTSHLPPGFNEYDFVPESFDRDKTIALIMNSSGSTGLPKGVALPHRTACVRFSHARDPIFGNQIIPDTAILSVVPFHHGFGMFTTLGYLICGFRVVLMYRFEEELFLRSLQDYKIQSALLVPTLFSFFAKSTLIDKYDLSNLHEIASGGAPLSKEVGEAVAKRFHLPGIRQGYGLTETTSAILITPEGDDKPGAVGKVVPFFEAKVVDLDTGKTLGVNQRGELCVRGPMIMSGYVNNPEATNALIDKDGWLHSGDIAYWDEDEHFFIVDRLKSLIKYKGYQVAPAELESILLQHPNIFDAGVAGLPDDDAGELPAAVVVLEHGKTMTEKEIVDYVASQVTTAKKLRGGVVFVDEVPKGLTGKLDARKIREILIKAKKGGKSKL

cells = assay type: functional
Cytochrome P450 1A2 = target: T2, Cytochrome P450 1A2 (Homo sapiens, UniProt P05177);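 also: PubChem cytochrome P450 panel assay, CYP1A2 panel member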
T2 sequence (P05177 whole entry): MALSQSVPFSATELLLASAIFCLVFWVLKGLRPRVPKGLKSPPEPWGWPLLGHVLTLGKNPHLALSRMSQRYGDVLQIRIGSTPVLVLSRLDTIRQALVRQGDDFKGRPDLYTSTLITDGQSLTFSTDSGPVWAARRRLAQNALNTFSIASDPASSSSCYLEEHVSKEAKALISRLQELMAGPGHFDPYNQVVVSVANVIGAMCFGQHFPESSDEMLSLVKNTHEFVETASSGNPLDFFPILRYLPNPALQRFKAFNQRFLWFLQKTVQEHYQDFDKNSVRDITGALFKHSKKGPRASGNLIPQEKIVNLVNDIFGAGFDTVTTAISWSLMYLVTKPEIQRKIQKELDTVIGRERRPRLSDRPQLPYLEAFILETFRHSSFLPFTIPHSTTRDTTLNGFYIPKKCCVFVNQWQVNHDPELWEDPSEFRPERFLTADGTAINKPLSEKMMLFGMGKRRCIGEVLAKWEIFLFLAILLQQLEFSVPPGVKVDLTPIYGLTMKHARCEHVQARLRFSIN

[5] = A Cell Based Secondary Assay To Explore Cytotoxicity of Compounds that Sensitize Mycobacterium Tuberculosis to Beta-Lactam Antibiotics.; assay type: functional
Bcl-2-related protein A1 [6] = target: T3, Bcl-2-related protein A1 (Mus musculus, UniProt Q07440); assay: Bfl-1 inhibitors blocking BH3 peptide binding, confirmation, biochemical, TR-FRET, mouse Bfl-1 (AID 621);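 also: TR-FRET binding of GST-Bfl-1 to FITC-labelled Bid peptide via terbium antibody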
T3 sequence (Q07440 whole entry): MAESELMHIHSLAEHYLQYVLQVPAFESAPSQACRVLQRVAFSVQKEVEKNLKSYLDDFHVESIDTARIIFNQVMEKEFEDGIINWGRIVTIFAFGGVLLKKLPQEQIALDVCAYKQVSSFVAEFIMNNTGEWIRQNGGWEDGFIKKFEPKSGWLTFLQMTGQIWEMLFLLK

Bcl-2-related protein A1 [7] = target: T3, Bcl-2-related protein A1; assay: Bfl-1 binding inhibitors, SAR follow-up, biochemical, fluorescence polarization (AID 1070)
[8] = target: Glyceraldehyde-3-phosphate dehydrogenase (Homo sapiens, UniProt P04406)
Glyceraldehyde-3-phosphate dehydrogenase, sequence (P04406 whole entry): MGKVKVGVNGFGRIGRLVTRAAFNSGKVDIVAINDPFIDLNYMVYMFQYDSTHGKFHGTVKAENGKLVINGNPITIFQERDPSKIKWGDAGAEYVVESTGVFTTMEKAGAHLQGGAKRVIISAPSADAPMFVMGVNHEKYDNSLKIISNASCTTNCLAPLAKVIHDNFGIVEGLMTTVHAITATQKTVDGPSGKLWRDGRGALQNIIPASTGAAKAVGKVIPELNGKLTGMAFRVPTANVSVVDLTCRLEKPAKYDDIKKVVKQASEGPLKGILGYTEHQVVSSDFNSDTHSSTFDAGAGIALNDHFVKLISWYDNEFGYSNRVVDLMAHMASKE

[9] = MC4R antagonists, dose response, counter-screen for LGR2 antagonist project, cell-based, plate reader, cherry pick (AID 743444); assay type: functional;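 also: transfected HEK 293 cells stimulated with alpha-MSH peptide; potency of inhibitors of the alpha-MSH evoked signal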
[10] = LGR2 antagonists, dose response, cell-based, HEK293, CRE-luciferase reporter, cherry pick, set 2 (AID 743343); assay type: functional;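 also: transfected cells were stimulated with diluted bursicon conditioned medium after compound addition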
[11] = target: T4, Heat shock factor protein 1 (Mus musculus, UniProt P38532); assay: inhibition of MG132-induced HSE-luciferase signal, confirmation, cell-based, NIH3T3, luminescence, dose retest (AID 2382); assay type: functional;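 also: NIH3T3 fibroblasts with HSF1-driven luciferase reporter stressed by proteasome inhibitor MG132; luminescence from HSF1-driven luciferase expression after 8 hours of MG132 stress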
T4 sequence (P38532 whole entry): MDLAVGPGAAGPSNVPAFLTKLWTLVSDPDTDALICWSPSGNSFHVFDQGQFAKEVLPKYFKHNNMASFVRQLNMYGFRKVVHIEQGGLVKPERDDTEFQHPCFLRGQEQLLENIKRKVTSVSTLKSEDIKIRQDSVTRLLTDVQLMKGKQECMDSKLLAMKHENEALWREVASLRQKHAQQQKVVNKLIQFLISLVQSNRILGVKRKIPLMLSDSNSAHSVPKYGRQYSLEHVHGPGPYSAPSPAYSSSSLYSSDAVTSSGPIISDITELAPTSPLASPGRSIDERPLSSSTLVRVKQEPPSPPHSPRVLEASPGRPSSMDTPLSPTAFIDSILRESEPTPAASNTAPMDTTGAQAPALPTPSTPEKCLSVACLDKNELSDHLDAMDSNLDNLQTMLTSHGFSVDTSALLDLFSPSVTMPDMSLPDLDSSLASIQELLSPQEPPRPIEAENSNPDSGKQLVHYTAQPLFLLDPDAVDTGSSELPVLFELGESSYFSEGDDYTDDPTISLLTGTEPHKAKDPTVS

HEK293 = assay: inhibitors of LMP1-driven NF-kB reporter, dose response, cell-based, HEK293, luciferase, cherry-pick (AID 588343); assay type: functional; settings: Homo sapiens
BJ [12] = assay: cytotoxicity toward Ras-transformed BJeLR fibroblasts, dose response, cell-based, alamar blue fluorescence, cherrypicked samples (AID 2631); assay type: functional; settings: Homo sapiens;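 also: confirmatory dose-response assay in RAS-dependent BJ fibroblasts engineered with TERT, LT and ST, with cytotoxicity read by fluorescence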
[13] = cytotoxicity toward DRD oncogenic fibroblasts, dose response, cell-based, non-viral oncogenic, luminescence (AID 1934); assay type: functional; settings: Homo sapiens
Paired box protein Pax-8 = Paired box protein Pax-8 (Homo sapiens, UniProt Q06710); assay: inhibitors of PAX8-driven TPO luciferase reporter, dose response, RMG-I cells, cherry-pick (AID 687027); assay type: functional, cell-based;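 also: luciferase reporter driven by Pax8 target thyroperoxidase promoter measured by SteadyGlo luminescence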
Paired box protein Pax-8, sequence (Q06710 whole entry): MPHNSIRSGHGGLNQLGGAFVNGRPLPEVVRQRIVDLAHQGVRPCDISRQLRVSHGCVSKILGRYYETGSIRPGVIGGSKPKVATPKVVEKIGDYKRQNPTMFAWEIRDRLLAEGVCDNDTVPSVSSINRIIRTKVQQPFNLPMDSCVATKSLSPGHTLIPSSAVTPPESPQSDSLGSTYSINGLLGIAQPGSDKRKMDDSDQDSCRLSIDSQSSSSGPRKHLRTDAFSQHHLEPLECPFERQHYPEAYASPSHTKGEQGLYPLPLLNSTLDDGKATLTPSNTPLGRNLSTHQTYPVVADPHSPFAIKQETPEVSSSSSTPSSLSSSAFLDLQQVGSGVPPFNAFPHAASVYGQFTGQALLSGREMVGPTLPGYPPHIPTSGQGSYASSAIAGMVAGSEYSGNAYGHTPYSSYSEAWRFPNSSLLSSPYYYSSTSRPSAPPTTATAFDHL

Cytochrome P450 3A4 = Cytochrome P450 3A4 (Homo sapiens, UniProt P08684);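 also: CYP3A4 tested as one member of a cytochrome P450 panel screen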
Cytochrome P450 3A4, sequence (P08684 whole entry): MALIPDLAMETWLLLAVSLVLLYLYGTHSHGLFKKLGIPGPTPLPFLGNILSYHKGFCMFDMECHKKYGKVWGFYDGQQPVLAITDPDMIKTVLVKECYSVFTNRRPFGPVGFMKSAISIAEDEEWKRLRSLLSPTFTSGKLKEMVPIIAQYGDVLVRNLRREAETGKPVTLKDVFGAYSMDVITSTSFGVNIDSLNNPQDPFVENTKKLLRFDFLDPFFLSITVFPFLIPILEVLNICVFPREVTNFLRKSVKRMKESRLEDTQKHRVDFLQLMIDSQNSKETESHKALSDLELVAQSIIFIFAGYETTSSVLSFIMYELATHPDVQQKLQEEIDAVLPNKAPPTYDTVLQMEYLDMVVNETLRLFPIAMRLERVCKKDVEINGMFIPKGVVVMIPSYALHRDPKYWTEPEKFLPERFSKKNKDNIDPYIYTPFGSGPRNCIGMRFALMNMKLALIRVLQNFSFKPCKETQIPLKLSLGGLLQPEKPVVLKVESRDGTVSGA

Cytochrome P450 2C9 = Cytochrome P450 2C9 (Homo sapiens, UniProt P11712)
Cytochrome P450 2C9, sequence (P11712 whole entry): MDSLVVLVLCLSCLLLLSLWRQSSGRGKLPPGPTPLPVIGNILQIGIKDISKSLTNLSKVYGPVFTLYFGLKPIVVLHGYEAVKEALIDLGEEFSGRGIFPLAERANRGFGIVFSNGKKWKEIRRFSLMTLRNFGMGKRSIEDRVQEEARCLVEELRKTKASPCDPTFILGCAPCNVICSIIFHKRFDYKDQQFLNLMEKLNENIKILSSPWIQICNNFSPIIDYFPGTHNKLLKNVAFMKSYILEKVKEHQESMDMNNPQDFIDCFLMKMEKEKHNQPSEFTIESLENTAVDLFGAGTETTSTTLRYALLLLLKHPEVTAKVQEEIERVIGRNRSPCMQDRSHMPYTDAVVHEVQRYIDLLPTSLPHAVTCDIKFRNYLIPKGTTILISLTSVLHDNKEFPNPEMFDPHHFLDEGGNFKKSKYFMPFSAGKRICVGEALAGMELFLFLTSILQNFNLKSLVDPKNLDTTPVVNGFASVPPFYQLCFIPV

BJ [14] = assay: cytotoxicity toward BJ-TERT fibroblasts, dose response, cell-based, RAS-independent, luminescence (AID 1933); assay type: functional; settings: Homo sapiens
INS1 = assay: beta cell apoptosis inhibitors, cytokine rescue, dose response, luminescence, retest (AID 449756); assay type: functional, cell-based; settings: Rattus norvegicus;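 also: cell death triggered by IL-1 beta plus TNF-alpha plus IFN-gamma mixture; protective hits raise ATP signal compared with cytokine alone wells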
BJ [15] = assay: cells; assay type: functional, cell-based; settings: Homo sapiens
BJ [16] = assay: cytotoxicity toward BJ-TERT-LT-ST fibroblasts, dose response, cell-based, RAS-independent, luminescence (AID 1935); assay type: functional; settings: Homo sapiens;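 also: BJ fibroblasts immortalized with TERT plus LT and ST oncogenes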
Prothrombin = Prothrombin (Homo sapiens, UniProt P00734); assay: Thrombin 1536 HTS Dose Response Confirmation. [Related pubchem assays: 1046 (Thrombin 1536 HTS; hits were confirmed in this assay)]; assay type: functional
[17] = cytotoxicity in KRAS-transformed pancreatic duct cells, primary screen, cell-based, fluorescence, HTS (AID 431); assay type: functional; settings: Homo sapiens;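 also: cell line used: HPDE-C7K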
[18] = cytotoxicity in HPDE-C7 cells, cell-based, fluorescence, HTS (AID 430); assay type: functional; settings: Homo sapiens
[19] = off-target signal loss in HeLa-CEM21 co-culture – HeLa F-luc CTL cells, cherry-picked, counter-screen for HIV-1 Env fusion inhibitor project, dose response (AID 652040); assay type: functional, cell-based;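 also: potency for signal decrease marking cytotoxic or nonspecific inhibition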
[20] = growth suppression of PTEN-null colon cells, dose response, cell-based, HCT116 PTEN knockout (AID 1047); assay type: functional;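 also: HCT116 colon tumor cells with PTEN knocked out; cells exposed to compound for 60 hours before readout; potency for loss of cell viability measured by luminescence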
[21] = growth suppression of beta-catenin-knockout colon cells, dose response, cell-based, HCT116, human colon tumor (AID 1045); assay type: functional;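 also: HCT116 colon tumor cells with beta catenin knocked out; cells exposed to compound for 60 hours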
[22] = CEM21 lymphoblast cell cytotoxicity, dose response, cytotoxicity control for viral fusion inhibitor project, CellTiter-Glo luminescence, cherry-picked (AID 652042); assay type: functional, cell-based;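 also: potency for signal decrease meaning cytotoxicity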
[23] = ZM109 Env clade C HIV-1 fusion inhibitors, dose response, HeLa effector, CEM target cells, luciferase, cherry-pick (AID 652058); assay type: functional, cell-based
[24] = inhibitors of clade B AD8 Env fusion, dose response, cell-based, cherry-pick (AID 652062); assay type: functional;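 also: luciferase signal from cell-cell fusion driven by HIV-1 clade B AD8 Env; potency is for inhibitors of fusion seen as a drop in luminescence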

## Cc1cc(NC(=O)CCNS(=O)(=O)c2cc(Br)cnc2N)ccc1Br
[1]
  CC50: > 40 µM (active)

## Oc1c(CN2CCOCC2)ccc2ccccc12
[2]
  IC50: > 50 µM (not active)

## COc1cccc(CN2CCN(C(=O)COc3ccc4ccccc4c3)CC2)c1
Beta-galactosidase
  IC50: > 80 µM (inactive)
[3]
  EC50: > 112 µM (not active)
[4]
  EC50: > 112 µM (not active)

## COc1cc(CNc2ccc3[nH]c(=O)[nH]c3c2)ccc1OCC(=O)NC(C)(C)C
[2]
  IC50: > 50 µM (not active)
[4]
  EC50: > 112 µM (not active)

## CCOC(=O)C1=C(N)n2c(s/c(=C/c3ccco3)c2=O)=C(C(=O)OC)C1c1ccco1 (centres undefined)
[1]
  CC50: > 40 µM (active)

## Cc1cccc(NCCC(=O)c2ccc([N+](=O)[O-])cc2)c1C
cells
  IC50: 18 µM (active)
[2]
  IC50: > 50 µM (not active)

## O=C(/C=C/c1ccccc1)N1CCN(Cc2nc(O)c3ccccc3n2)CC1
Beta-galactosidase
  IC50: > 80 µM (inactive)
Cytochrome P450 1A2
  AC50: 31.6 µM (inconclusive)

## CCOC(=O)c1ccccc1NC(=O)C1COc2ccccc2O1 (centres undefined)
[5]
  CC50: > 40 µM (active)

## O=C1C(Cl)=C(N2CCN(c3ccc(Cl)c(Cl)c3)CC2)C(=O)N1c1ccc(Cl)c(Cl)c1
Bcl-2-related protein A1 [6]
  IC50: 65.5 µM (active)
Bcl-2-related protein A1 [7]
  IC50: > 100 µM (not active)
[8]
  IC50: > 100 µM (not active)

## O=C(O)c1cccc(Nc2ccnc(Nc3cccc(C(=O)O)c3)n2)c1
[9]
  AC50: 2.56 µM (active)
[10]
  AC50: 2.9 µM (active)
[11]
  EC50: 281 nM (active)
HEK293
  AC50: 3.56 µM (active)

## FC(F)(F)c1nnc2c(Sc3ccccc3)nc3ccc(Cl)cc3n12
BJ [12]
  EC50: 599 nM (active)
[13]
  EC50: 4.19 µM (active)
Paired box protein Pax-8
  AC50: 1.52 µM (active)
Cytochrome P450 3A4
  AC50: inconclusive
Cytochrome P450 2C9
  AC50: 8.91 µM (inconclusive)
BJ [14]
  EC50: 1.8 µM (inconclusive)
INS1
  AC50: 7.41 µM (active)
BJ [15]
  EC50: 23.4 µM (active)
BJ [16]
  EC50: 3.65 µM (active)

## CCCCc1c(C)nc2ccc(Br)cc2c1SCCC#N
Prothrombin
  IC50: > 50 µM (not active)
[1]
  CC50: 16.3 µM (active)

## CC(C)(C)c1cc(CN2CCCC(O)C2)c(O)c(C(C)(C)C)c1 (centres undefined)
[17]
  EC50: 14.9 µM (active)
[18]
  EC50: 15.5 µM (active)

## CN(C)S(=O)(=O)c1ccc(C(=O)Nc2nc(-c3cccs3)cs2)cc1
[19]
  AC50: > 70 µM (inactive)
[20]
  EC50: 79.7 µM (active)
[21]
  EC50: 102 µM (active)
[22]
  AC50: 67.7 µM (active)
[23]
  AC50: 879 nM (active)
[24]
  AC50: 9.43 µM (active)
